Substitutions are numbered along the chain they refer to.
Tests used:
[1] = target: T1, HEK-293 cells expressing a G810R mutant RET Kif5b-RET fusion protein (Homo sapiens, UniProt P07949, G810R); test: RET G810R Mutant Cell Assay (phospho-RET Tyr1062); assay type: cell-based; details: HEK-293 Kif5b-RET G810R, 1 hour incubation, phospho-RET normalized to GAPDH
T1 construct: KIF5B (N-terminal portion incl. coiled-coil); expressed in transfected cells; host or cells: HEK-293; the other entry of the earlier key: KIF5B (P33176, Kinesin-1 heavy chain)
T1 sequence (P07949 713-1063 G810R limits assumed): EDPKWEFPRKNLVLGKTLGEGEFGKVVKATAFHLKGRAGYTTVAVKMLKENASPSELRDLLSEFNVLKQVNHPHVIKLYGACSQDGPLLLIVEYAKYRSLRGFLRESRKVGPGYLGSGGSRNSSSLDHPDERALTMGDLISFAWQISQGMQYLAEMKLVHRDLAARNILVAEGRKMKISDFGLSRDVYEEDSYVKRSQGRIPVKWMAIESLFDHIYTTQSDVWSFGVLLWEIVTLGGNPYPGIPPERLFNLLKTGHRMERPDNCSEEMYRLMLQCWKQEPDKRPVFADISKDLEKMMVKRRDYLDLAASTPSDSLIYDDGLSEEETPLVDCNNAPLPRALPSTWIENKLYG
Protocol: (§1) The cellular potency of compounds inhibiting RET kinase were determined in HEK-293 cells expressing a G810R or G810S mutant RET Kif5b-RET fusion protein. Briefly, HEK-293 cells expressing a G810R or G810S mutant RET Kif5b-RET fusion protein were plated at 50K cells/well in 96 well poly-D-Lysine coated plates the day prior to the assay. The cells were incubated for 1 hour with test compound in DMEM (Dulbecco's Modified Eagle Medium) at a final DMSO concentration of 0.5%. […] After 1 hour the media was removed, the cells were fixed with 3.8% formaldehyde for 20 min, washed with PBS, and permeabilized for 10 min with 100% methanol. The plates were then washed with PBS-0.05% Tween20, and blocked with LI-COR Blocking solution (LI-COR Catalog No. 927-40000) for 1 hour. Plates were washed with PBS-0.05% Tween20, then incubated with anti-phospho-RET (Tyr1062) (Santa Cruz Catalog No. sc-20252-R) antibody and anti-GAPDH (Millipore Catalog No. MAB374) antibody for 2 hours. The plates were washed with PBS-0.05% Tween20, and incubated with anti-rabbit 680 (Molecular Probes Catalog No. A21109) and anti-mouse 800 (LI-COR Catalog No. 926-32210) secondary antibodies for 1 hour. All antibodies were diluted in LI-COR Block containing 0.05% Tween. The plates were washed with PBS-0.05% Tween20,100 μL PBS was added to each well, and the plates were read on a LI-COR Aerius fluorescent plate reader. The phospho-RET signal was normalized to the GAPDH signal. […] The POC values are fit to a 4 parameter logistic curve. The IC50 value is the point where the curve crosses 50 POC.

G810S mutant RET kinase = G810S mutant RET kinase (Homo sapiens, UniProt P07949, G810S); test: biochemical;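 further: HTRF KinEASE-TK kinase assay with recombinant enzyme, 1 h at 22 °C, dual-wavelength ratiometric read-out, percent of control (DMSO-only = 100, pre-quenched reaction = 0)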
Sequence of G810S mutant RET kinase (P07949 29-1114 G810S): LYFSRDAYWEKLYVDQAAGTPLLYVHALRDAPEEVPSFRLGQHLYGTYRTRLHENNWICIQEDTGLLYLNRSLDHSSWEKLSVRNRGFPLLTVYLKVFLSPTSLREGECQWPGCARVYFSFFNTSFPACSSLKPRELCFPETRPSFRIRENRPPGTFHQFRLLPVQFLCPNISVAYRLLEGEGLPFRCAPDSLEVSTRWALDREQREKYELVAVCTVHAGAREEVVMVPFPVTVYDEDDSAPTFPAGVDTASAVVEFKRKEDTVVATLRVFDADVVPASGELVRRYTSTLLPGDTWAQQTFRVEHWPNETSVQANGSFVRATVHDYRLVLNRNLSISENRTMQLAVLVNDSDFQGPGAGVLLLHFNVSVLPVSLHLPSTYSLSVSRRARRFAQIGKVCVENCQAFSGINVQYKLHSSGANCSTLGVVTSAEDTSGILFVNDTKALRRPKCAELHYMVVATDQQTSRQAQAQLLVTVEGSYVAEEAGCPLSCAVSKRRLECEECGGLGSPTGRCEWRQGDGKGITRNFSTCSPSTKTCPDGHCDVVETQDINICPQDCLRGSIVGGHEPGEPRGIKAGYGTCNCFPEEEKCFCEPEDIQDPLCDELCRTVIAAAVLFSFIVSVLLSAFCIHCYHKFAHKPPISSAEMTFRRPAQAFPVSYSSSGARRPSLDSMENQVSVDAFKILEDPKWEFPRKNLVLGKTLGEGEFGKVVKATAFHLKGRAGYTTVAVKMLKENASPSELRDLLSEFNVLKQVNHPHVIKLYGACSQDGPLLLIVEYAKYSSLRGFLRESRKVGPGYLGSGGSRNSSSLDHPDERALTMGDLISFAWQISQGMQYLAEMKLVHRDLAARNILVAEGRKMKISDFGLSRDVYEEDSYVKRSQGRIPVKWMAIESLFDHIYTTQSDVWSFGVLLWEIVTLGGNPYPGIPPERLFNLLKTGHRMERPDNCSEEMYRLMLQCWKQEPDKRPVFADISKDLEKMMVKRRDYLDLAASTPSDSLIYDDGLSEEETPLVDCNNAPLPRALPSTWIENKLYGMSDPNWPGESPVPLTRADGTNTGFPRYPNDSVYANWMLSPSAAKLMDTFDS

RET kinase Wild Type = RET kinase Wild Type (Homo sapiens, UniProt P07949); test: biochemical;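 further: HTRF kinase activity assay on RET enzyme, 1 h reaction at 22 °C, dual-wavelength readout as percent of control, DMSO-only wells as 100%, pre-quenched reactions as 0%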
Sequence of RET kinase Wild Type (P07949 29-1114): as the sequence (P07949 29-1114 G810S) above, with S782G counted along it

G810R mutant RET kinase = G810R mutant RET kinase (Homo sapiens, UniProt P07949, G810R); test: biochemical;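 further: HTRF KinEASE-TK enzymatic assay with 1 nM recombinant RET G810R, 1 h at 22 °C, dual-wavelength ratiometric readout, 100% control without compound, 0% from pre-quenched reactions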
Sequence of G810R mutant RET kinase (P07949 29-1114 G810R): as the sequence (P07949 29-1114 G810S) above, with S782R counted along it

[2] = target: T2, HEK-293 cells expressing a Kif5b-RET fusion protein (Homo sapiens, UniProt P07949); test: RET Cell Assay (phospho-RET Tyr1062); assay type: cell-based; details: HEK-293 Kif5b-RET, 1 hour incubation, phospho-RET normalized to GAPDH; read-out: KIF5B-RET pTYR1062 Cell IC50
T2 construct: KIF5B (N-terminal portion incl. coiled-coil); expressed in transfected cells; host or cells: HEK-293; the other entry of the earlier key: KIF5B (P33176, Kinesin-1 heavy chain)
T2 sequence (P07949 713-1063 limits assumed): T1 sequence (P07949 713-1063 G810R limits assumed) with R98G
Protocol: as §1, with “a” for “a G810R or G810S mutant RET”, “PBS is” for “PBS was”, “values were” for “values are”

RET kinase V804M = RET kinase V804M (Homo sapiens, UniProt P07949, V804M); test: RET Enzyme Assay (CisBio HTRF KinEASE-TK), V804M; assay type: biochemical; details: read-out: RET V804M Enz FRET IC50
Sequence of RET kinase V804M (P07949 29-1114 V804M): as the sequence (P07949 29-1114 G810S) above, with V776M, S782G counted along it
Protocol: The potency of compounds inhibiting several different RET kinase forms (Wild Type, V804M, G810R, & G810S) were determined using CisBio's HTRF® KinEASE™-TK assay technology. […] After a 1 hour incubation at 22° C., the extent of reaction was determined using a PerkinElmer EnVision multimode plate reader via HTRF dual wavelength detection, and the percent of control (POC) was calculated using a ratiometric emission factor. One hundred POC was determined using DMSO only samples (no compound present), and 0 POC was determined using pre-quenched control reactions.

`COC1CCc2c(c3c(N)ncnc3n2C(C)C)-c2noc(C3CC3)c21` (racemic) [Example 53, 3-cyclopropyl-7-isopropyl-4-methoxy-4,5,6,7-tetrahydroisoxazolo[4″,3″:6′,7′]cyclohepta[1′,2′:4,5]pyrrolo[2,3-d]pyrimidin-11-amine] was tested, and the IC50 [1] was 485 nM, the IC50 (G810S mutant RET kinase) was 94 nM and the IC50 (RET kinase Wild Type) was 16 nM. For the same compound, the IC50 (G810R mutant RET kinase) was 102 nM, the IC50 [2] was 64 nM and the IC50 (RET kinase V804M) was 34 nM.
Compound `CCN1Cc2c(c3c(N)ncnc3n2C(C)C)-c2noc(C3CC3)c2C1=O` [Example 1, 11-amino-3-cyclopropyl-5-ethyl-7-isopropyl-6,7-dihydroisoxazolo[4,3-c]pyrimido[5′,4′:4,5]pyrrolo[3,2-e]azepin-4(5H)-one] has an IC50 [1] of 179 nM, an IC50 (G810S mutant RET kinase) of 117 nM and an IC50 (RET kinase Wild Type) of 52 nM. For the same compound, the IC50 (G810R mutant RET kinase) was 145 nM, the IC50 [2] was 17 nM and the IC50 (RET kinase V804M) was 202 nM.
`CC(C)n1c2c(c3c(N)ncnc31)-c1ccc(Cl)cc1C(=O)NC2` [Example 45, 12-amino-3-chloro-8-isopropyl-7,8-dihydrobenzo[c]pyrimido[5′,4′:4,5]pyrrolo[3,2-e]azepin-5(6H)-one] gave an IC50 [1] of 814 nM, an IC50 (G810S mutant RET kinase) of 557 nM and an IC50 (RET kinase Wild Type) of 194 nM. The IC50 (G810R mutant RET kinase) was 275 nM and the IC50 [2] was 344 nM.
`Nc1ncnc2[nH]c3c(c12)-c1noc(C2CC2)c1C(=O)NC3` [Example 66, 11-amino-3-cyclopropyl-6,7-dihydroisoxazolo[4,3-c]pyrimido[5′,4′:4,5]pyrrolo[3,2-e]azepin-4(5H)-one 2,2,2-trifluoroacetate] gave an IC50 (G810S mutant RET kinase) of 2300 nM, an IC50 (RET kinase Wild Type) of 1790 nM and an IC50 (G810R mutant RET kinase) of 2180 nM. The IC50 (RET kinase V804M) was 6830 nM.
`CC(C)n1c2c(c3c(N)ncnc31)-c1cc3ccccc3n1C(=O)CC2` [Example 68, 1-amino-5-isopropyl-6,7-dihydropyrimido[5″,4″:4′,5′]pyrrolo[3′,2′:3,4]azepino[1,2-a]indol-8(5H)-one] gave an IC50 [1] of 4750 nM, an IC50 (G810S mutant RET kinase) of 1160 nM and an IC50 (RET kinase Wild Type) of 386 nM. It also gave an IC50 (G810R mutant RET kinase) of 485 nM and an IC50 [2] of 1780 nM.
In the case of `CC(C)n1c2c(c3c(N)ncnc31)-c1cc3ccccc3n1C(=O)NC2` [Example 69, 1-amino-5-isopropyl-6,7-dihydropyrimido[5″,4″:4′,5′]pyrrolo[2′,3′:5,6][1,3]diazepino[1,7-a]indol-8(5H)-one], the IC50 [1] is reported as 394 nM, the IC50 (G810S mutant RET kinase) is reported as 65 nM and the IC50 (RET kinase Wild Type) is reported as 34 nM. The IC50 (G810R mutant RET kinase) was 47 nM and the IC50 [2] was 103 nM.
Work on `Cc1cc2n(n1)C(=O)NCc1c-2c2c(N)ncnc2n1C(C)C` [Example 105, 12-amino-8-isopropyl-2-methyl-7,8-dihydropyrazolo[1,5-c]pyrimido[5′,4′:4,5]pyrrolo[3,2-e][1,3]diazepin-5(6H)-one 2,2,2-trifluoroacetate] yielded an IC50 [1] of 15500 nM, an IC50 (G810S mutant RET kinase) of 2580 nM and an IC50 (RET kinase Wild Type) of 639 nM. The IC50 (G810R mutant RET kinase) was 742 nM and the IC50 [2] was 1360 nM.
`Nc1ncnc2[nH]c3c(c12)-c1noc(C2CC2)c1C(=O)CC3` [Example 111, 11-amino-3-cyclopropyl-6,7-dihydroisoxazolo[4″,3″:6′,7′]cyclohepta[1′,2′:4,5]pyrrolo[2,3-d]pyrimidin-4(5H)-one] was tested, and the IC50 (G810S mutant RET kinase) was 2710 nM, the IC50 (RET kinase Wild Type) was 3440 nM and the IC50 (G810R mutant RET kinase) was 3300 nM. It also gave an IC50 (RET kinase V804M) of 6240 nM.
Compound `COc1ccc(-n2c3c(c4c(N)ncnc42)-c2noc(C4CC4)c2C(O)CC3)cn1` (stereo not shown) [Example 114, 11-Amino-3-cyclopropyl-7-(6-methoxypyridin-3-yl)-4,5,6,7-tetrahydroisoxazolo[4″,3″:6′,7′]cyclohepta[1′,2′:4,5]pyrrolo[2,3-d]pyrimidin-4-ol 2,2,2-trifluoroacetate] has an IC50 (G810S mutant RET kinase) of 282 nM, an IC50 (RET kinase Wild Type) of 357 nM and an IC50 (G810R mutant RET kinase) of 435 nM. For the same compound, the IC50 (RET kinase V804M) was 1050 nM.
`CC(=O)N1CCC(n2c3c(c4c(N)ncnc42)-c2noc(C4CC4)c2C(O)CC3)C1` (stereo not shown) [Example 134, 1-(3-(11-amino-3-cyclopropyl-4-hydroxy-5,6-dihydroisoxazolo[4″,3″:6′,7′]cyclohepta[1′,2′:4,5]pyrrolo[2,3-d]pyrimidin-7(4H)-yl)pyrrolidin-1-yl)ethan-1-one 2,2,2-trifluoroacetate] was tested, and the IC50 (G810S mutant RET kinase) was 488 nM, the IC50 (RET kinase Wild Type) was 112 nM and the IC50 (G810R mutant RET kinase) was 560 nM. The IC50 (RET kinase V804M) was 355 nM.
Compound `Nc1ncnc2c1c1c(n2[C@H]2C[C@@H](CO)C2)CCC(O)c2c-1noc2C1CC1` (stereo partly shown) [Example 136, 11-Amino-3-cyclopropyl-7-((1s,3s)-3-(hydroxymethyl)cyclobutyl)-4,5,6,7-tetrahydroisoxazolo[4″,3″:6′,7′]cyclohepta[1′,2′:4,5]pyrrolo[2,3-d]pyrimidin-4-ol 2,2,2-trifluoroacetate] has an IC50 (G810S mutant RET kinase) of 817 nM, an IC50 (RET kinase Wild Type) of 201 nM and an IC50 (G810R mutant RET kinase) of 274 nM. The IC50 (RET kinase V804M) was 551 nM.
With `CC(C)(O)[C@H]1C[C@@H](n2c3c(c4c(N)ncnc42)-c2noc(C4CC4)c2C(O)CC3)C1` (stereo partly shown) [Example 138, 11-Amino-3-cyclopropyl-7-((1s,3s)-3-(2-hydroxypropan-2-yl)cyclobutyl)-4,5,6,7-tetrahydroisoxazolo[4″,3″:6′,7′]cyclohepta[1′,2′:4,5]pyrrolo[2,3-d]pyrimidin-4-ol 2,2,2-trifluoroacetate] the IC50 (G810S mutant RET kinase) was 646 nM, the IC50 (RET kinase Wild Type) was 143 nM and the IC50 (G810R mutant RET kinase) was 272 nM. The IC50 (RET kinase V804M) was 376 nM.
`Nc1ncnc2c1c1c(n2C2CCOC2)CCC(=O)c2c-1noc2C1CC1` (stereo not shown) [Example 141, 11-Amino-3-cyclopropyl-7-(tetrahydrofuran-3-yl)-6,7-dihydroisoxazolo[4″,3″:6′,7′]cyclohepta[1′,2′:4,5]pyrrolo[2,3-d]pyrimidin-4(5H)-one] was tested, and the IC50 (G810S mutant RET kinase) was 405 nM, the IC50 (RET kinase Wild Type) was 139 nM and the IC50 (G810R mutant RET kinase) was 211 nM. For the same compound, the IC50 (RET kinase V804M) was 415 nM.
With `Nc1ncnc2c1c1c(n2C2CC(F)(F)C2)CCC(O)c2c-1noc2C1CC1` (stereo not shown) [Example 148, 11-amino-3-cyclopropyl-7-(3,3-difluorocyclobutyl)-4,5,6,7-tetrahydroisoxazolo[4″,3″:6′,7′]cyclohepta[1′,2′:4,5]pyrrolo[2,3-d]pyrimidin-4-ol 2,2,2-trifluoroacetate] the IC50 (G810S mutant RET kinase) was 758 nM, the IC50 (RET kinase Wild Type) was 183 nM and the IC50 (G810R mutant RET kinase) was 154 nM. The IC50 (RET kinase V804M) was 216 nM.

From patent US11964988B2, “Fused heterocyclic compounds as RET kinase inhibitors” (ARRAY BIOPHARMA INC., priority 2018, dated 2024)
